In patent US8247351B2, “Insecticidal compositions having improved effect” (Bayer Cropscience AG, priority 2005, dated 2012):

Columns and labels:
Assay type in all cases: in vivo
Myzus persicae [1] = assay: Myzus persicae test, Example D (sprayed to runoff, ammonium salt boosting)
Protocol: (§1) Solvent: 7 parts by weight dimethylformamide
(§2) Emulsifier: 2 parts by weight alkylaryl polyglycol ether
(§3) An appropriate preparation of active ingredient is prepared by mixing 1 part by weight of active ingredient with the stated amounts of solvent and emulsifier and diluting the concentrate with water to the desired concentration. For the application with ammonium salts or phosphonium salts, these salts are added in a concentration of 1000 ppm to the spray liquor.
Paprika plants (Capsicum annum) heavily infested by the green peach aphid (Myzus persicae) are treated by being. sprayed to runoff with the preparation of active ingredient at the desired concentration. After the desired time the destruction in % is ascertained. 100% means that all of the animals have been killed; 0% means that no animals have been killed.

Myzus persicae [2] = assay: Myzus persicae test, Example F (sprayed to runoff, ammonium salt plus penetrant)
Protocol: as §1, §2
An appropriate preparation of active ingredient is prepared by mixing 1 part by weight of active ingredient with the stated amounts of solvent and emulsifier and diluting the concentrate with water to the desired concentration. For the application with ammonium salts or phosphonium salts and penetrant (rapeseed oil methyl ester 500 EW), they are each added in a concentration of 1000 ppm to the spray liquor.
After the desired time the destruction in % is ascertained. 100% means that all of the animals have been killed; 0% means that no animals have been killed.

Aphis gossypii [3] = assay: Aphis gossypii test, Example E (sprayed to runoff, ammonium salt boosting)
Protocol: as §1, §2
as §3, with “concentrate with emulsifier-containing water to” for “concentrate with water to”
(§4) Cotton plants (Gossypium hirsutum) heavily infested by the cotton aphid (Aphis gossypii) are sprayed to runoff with the preparation of active ingredient at the desired concentration.
(§5) After the desired time the destruction in % is ascertained. 100% means that all of the aphids have been killed; 0% means than no aphids were killed.

Aphis gossypii [4] = assay: Aphis gossypii test, Example G (sprayed to runoff, ammonium salt plus penetrant)
Protocol: as §1, §2
An appropriate preparation of active ingredient is prepared by mixing 1 part by weight of active ingredient with the stated amounts of solvent and emulsifier and diluting the concentrate with emulsifier-containing water to the desired concentration. For the application with ammonium salts or phosphonium salts and penetrants (rapeseed oil methyl esters 500 EW), they are each added in a concentration of 1000 ppm a.i. to the spray liquor.
as §4, §5

[5] = 4 ppm active ingredient, +AS (1000 ppm)
[6] = 4 ppm active ingredient, no additive
[7] = 20 ppm active ingredient, +AS (1000 ppm)
[8] = 20 ppm active ingredient, no additive
[9] = 4 ppm active ingredient, +RME (1000 ppm)
[10] = 4 ppm active ingredient, +RME +AS (each 1000 ppm)
[11] = 0.8 ppm active ingredient, +AS (1000 ppm)
[12] = 0.8 ppm active ingredient, +RME (1000 ppm)
[13] = 0.8 ppm active ingredient, +RME +AS (each 1000 ppm)
[14] = 0.8 ppm active ingredient, no additive
[15] = 20 ppm active ingredient, +RME (1000 ppm)
[16] = 20 ppm active ingredient, +RME +AS (each 1000 ppm)

Structure (SMILES) | Degree of destruction/% after 6 days (Myzus persicae [1]; [5]) | Degree of destruction/% after 6 days (Myzus persicae [1]; [6]) | Degree of destruction/% after 6 days (Myzus persicae [1]; [7]) | Degree of destruction/% after 6 days (Myzus persicae [1]; [8]) | Degree of destruction/% after 6 days (Myzus persicae [2]; [5]) | Degree of destruction/% after 6 days (Myzus persicae [2]; [9]) | Degree of destruction/% after 6 days (Myzus persicae [2]; [10]) | Degree of destruction/% after 6 days (Myzus persicae [2]; [6]) | Degree of destruction/% after 6 days (Aphis gossypii [3]; [5]) | Degree of destruction/% after 6 days (Aphis gossypii [3]; [6]) | Degree of destruction/% after 6 days (Aphis gossypii [3]; [7]) | Degree of destruction/% after 6 days (Aphis gossypii [3]; [8]) | Degree of destruction/% after 6 days (Aphis gossypii [4]; [11]) | Degree of destruction/% after 6 days (Aphis gossypii [4]; [12]) | Degree of destruction/% after 6 days (Aphis gossypii [4]; [13]) | Degree of destruction/% after 6 days (Aphis gossypii [4]; [14]) | Degree of destruction/% after 6 days (Myzus persicae [2]; [11]) | Degree of destruction/% after 6 days (Myzus persicae [2]; [12]) | Degree of destruction/% after 6 days (Aphis gossypii [3]; [11]) | Degree of destruction/% after 6 days (Aphis gossypii [3]; [14]) | further results
Cc1ccc(-c2ccc(Cl)cc2)cc1C1=C(O)C(C)(C)NC1=O [Example I-1-a-3] | 90% | 0% | 75% | 60% | 20% | 10% | 90% | 0% | 35% | 5% | 80% | 20% |  |  |  |  |  |  |  |  | 
Cc1cc(Cl)cc(C)c1C1=C(O)C2(CCC3(CC2)OCCO3)NC1=O [Example I-1-a-4] | 65% | 40% | 98% | 95% | 65% | 95% | 98% | 40% | 85% | 60% |  |  | 65% | 30% | 80% | 15% | 5% | 0% | 65% | 15% | Degree of destruction/% after 6 days (Myzus persicae [2]; [13]): 20%; Degree of destruction/% after 6 days (Myzus persicae [2]; [14]): 0%
CO[C@@H]1CCC[C@]2(C1)NC(=O)C(c1c(C)cc(C)cc1C)=C2O [Example I-1-a-6] |  |  |  |  |  |  |  |  | 55% | 25% |  |  |  |  |  |  |  |  | 30% | 15% | Degree of destruction/% after 6 days (Aphis gossypii [4]; [5]): 55%; Degree of destruction/% after 6 days (Aphis gossypii [4]; [9]): 50%; Degree of destruction/% after 6 days (Aphis gossypii [4]; [10]): 80%; Degree of destruction/% after 6 days (Aphis gossypii [4]; [6]): 25%
CO[C@H]1CC[C@]2(CC1)NC(=O)C(c1c(C)cc(I)cc1C)=C2O [Example I-1-a-7] | 80% | 40% |  |  |  |  |  |  | 90% | 55% | 99% | 85% | 45% | 50% | 75% | 35% | 10% | 35% |  |  | Degree of destruction/% after 6 days (Aphis gossypii [4]; [5]): 90%; Degree of destruction/% after 6 days (Aphis gossypii [4]; [9]): 85%; Degree of destruction/% after 6 days (Aphis gossypii [4]; [10]): 95%; Degree of destruction/% after 6 days (Aphis gossypii [4]; [6]): 55%; Degree of destruction/% after 6 days (Myzus persicae [2]; [13]): 75%; Degree of destruction/% after 6 days (Myzus persicae [2]; [14]): 0%
Cc1cc(C)c(C2=C(O)C3(CCC(C)CC3)NC2=O)c(C)c1 (centres unmarked) [Example I-1-a-8] |  |  |  |  |  |  |  |  |  |  |  |  | 40% | 20% | 60% | 0% | 55% | 60% | 40% | 0% | Degree of destruction/% after 6 days (Myzus persicae [1]; [11]): 55%; Degree of destruction/% after 6 days (Myzus persicae [1]; [14]): 20%; Degree of destruction/% after 6 days (Myzus persicae [2]; [13]): 80%; Degree of destruction/% after 6 days (Myzus persicae [2]; [14]): 20%
COC1CCC2(CC1)NC(=O)C(c1cc(C)c(Cl)cc1C)=C2O (centres unmarked) [Example I-1-a-10] | 35% | 0% | 85% | 40% | 35% | 75% | 85% | 0% | 65% | 20% | 75% | 40% |  |  |  |  |  |  |  |  | 
COC1CCC2(CC1)NC(=O)C(c1cc(C)ccc1Br)=C2O (centres unmarked) [Example I-1-a-11] |  |  | 70% | 0% | 5% | 55% | 99% | 0% | 35% | 5% | 80% | 45% |  |  |  |  |  |  |  |  | Degree of destruction/% after 6 days (Aphis gossypii [4]; [5]): 35%; Degree of destruction/% after 6 days (Aphis gossypii [4]; [9]): 45%; Degree of destruction/% after 6 days (Aphis gossypii [4]; [10]): 80%; Degree of destruction/% after 6 days (Aphis gossypii [4]; [6]): 5%
COC1CCC2(CC1)NC(=O)C(c1c(Cl)cc(Cl)c(C)c1Cl)=C2O (centres unmarked) [Example I-1-a-12] |  |  | 65% | 55% | 5% | 0% | 50% | 0% | 95% | 65% |  |  | 45% | 45% | 65% | 5% |  |  | 45% | 5% | Degree of destruction/% after 6 days (Myzus persicae [2]; [7]): 65%; Degree of destruction/% after 6 days (Myzus persicae [2]; [15]): 70%; Degree of destruction/% after 6 days (Myzus persicae [2]; [16]): 98%; Degree of destruction/% after 6 days (Myzus persicae [2]; [8]): 55%
COCC1CCC2(CC1)NC(=O)C(c1c(C)cc(Cl)cc1Cl)=C2O (centres unmarked) [Example I-1-a-16] |  |  |  |  |  |  |  |  | 75% | 40% | 85% | 75% |  |  |  |  |  |  |  |  | Degree of destruction/% after 6 days (Aphis gossypii [4]; [7]): 85%; Degree of destruction/% after 6 days (Aphis gossypii [4]; [15]): 95%; Degree of destruction/% after 6 days (Aphis gossypii [4]; [16]): 99%; Degree of destruction/% after 6 days (Aphis gossypii [4]; [8]): 75%
COC1CCC2(CC1)OC(=O)C(c1c(C)cc(C)cc1C)=C2O (centres unmarked) [Example I-2-a-1] | 98% | 90% |  |  |  |  |  |  | 95% | 80% |  |  |  |  |  |  | 65% | 95% | 85% | 0% | Degree of destruction/% after 6 days (Myzus persicae [1]; [11]): 65%; Degree of destruction/% after 6 days (Myzus persicae [1]; [14]): 20%; Degree of destruction/% after 6 days (Myzus persicae [2]; [13]): 100%; Degree of destruction/% after 6 days (Myzus persicae [2]; [14]): 20%
COc1cc(C)cc(C)c1C1=C(O)C2(CCC(OC)CC2)OC1=O (centres unmarked) [Example I-2-a-2] | 90% | 65% |  |  |  |  |  |  | 95% | 85% |  |  | 70% | 50% | 95% | 30% | 25% | 15% | 70% | 30% | Degree of destruction/% after 6 days (Myzus persicae [1]; [11]): 25%; Degree of destruction/% after 6 days (Myzus persicae [1]; [14]): 0%; Degree of destruction/% after 6 days (Myzus persicae [2]; [13]): 99%; Degree of destruction/% after 6 days (Myzus persicae [2]; [14]): 0%
Cc1ccccc1-c1c(O)c(C)c(-c2ccccn2)oc1=O [Example I-4-a-2] |  |  |  |  |  |  |  |  | 60% | 50% |  |  |  |  |  |  |  |  |  |  | Degree of destruction/% after 6 days (Aphis gossypii [4]; [5]): 60%; Degree of destruction/% after 6 days (Aphis gossypii [4]; [9]): 0%; Degree of destruction/% after 6 days (Aphis gossypii [4]; [10]): 65%; Degree of destruction/% after 6 days (Aphis gossypii [4]; [6]): 5%
COc1cc(C)cc(C)c1-c1c(O)sc(-c2ccc(F)cc2)nc1=O [Example I-5-a-1] |  |  | 55% | 0% | 5% | 55% | 95% | 0% |  |  |  |  |  |  |  |  |  |  |  |  | 
Cc1ccc(-c2ccc(Cl)cc2)cc1C1=C(O)C2(C)CCCCC2OC1=O (centres unmarked) [Example I-10-a-2] |  |  |  |  |  |  |  |  | 50% | 0% | 80% | 10% |  |  |  |  |  |  |  |  | Degree of destruction/% after 6 days (Myzus persicae [2]; [7]): 10%; Degree of destruction/% after 6 days (Myzus persicae [2]; [15]): 0%; Degree of destruction/% after 6 days (Myzus persicae [2]; [16]): 65%; Degree of destruction/% after 6 days (Myzus persicae [2]; [8]): 5%
